# Assay results: US9993423B2, “Microneedle deposition method” (COSMED PHARMACEUTICAL CO., LTD., priority 2011, dated 2018)
# System: diabetes model rats created by administration of streptozotocin
# Assay: Blood glucose level measurement test after insulin administration
# Type: in vivo, rat
# Settings: 0.5, 1 and 2 hours, fasted diabetes model rats, FIG. 2
# Description: Insulin was transdermally administered to rats using the manufactured microneedle array.
# In diabetes model rats created by administration of streptozotocin (Body weight: about 300 g), their abdomens were dehaired. After these rats were fasted for 14 hours or longer, the microneedle array was inserted to the dehaired skin and fixed to the skin by YU-KI BAN (NITTO MEDICAL CORPORATION). Blood was sampled 0.5, 1 and 2 hours after administration of the microneedle array, and the blood glucose levels were measured. For measurement of the blood glucose levels, Glucose CII-test kit (Wako Pure Chemical Industries, Ltd.) was used. The tests were conducted in four cases.
# Insulin was subcutaneously injected to rats.
# After the diabetes model rats were fasted for 14 hours or longer, 0.25 units of insulin were subcutaneously injected. Blood was sampled 0.5, 1 and 2 hours after administration of insulin, and the blood glucose levels were measured. For measurement of the blood glucose levels, Glucose CII-test kit was used like Example 1. […]. The tests were conducted in four cases.
# As a standard of the blood glucose level measurement test, a control (no insulin) was measured.
# After the diabetes model rats were fasted for 14 hours or longer, blood was sampled 0.5, 1 and 2 hours later, and the blood glucose levels were measured. […]
substance,measurement,setting,value
"insulin: Bovine insulin (NACALAI TESQUE), given on hyaluronic acid microneedle array tips (0.25 unit per array) or by subcutaneous injection","blood glucose level (relative value, time zero = 100)","microneedle array, 0.25 unit insulin, transdermal on dehaired abdomen",lowered
same,"blood glucose level (relative value, time zero = 100)","subcutaneous injection, 0.25 units of insulin",lowered
